Literature values in patent US11059813B2, “Polymorphic forms of Dasatinib” (BIOCON LIMITED, priority 2017, dated 2021).

Tests used:
[1] = co-former alone
[2] = co-former alone; for thermal stability: melting points greater than 300° C.
rat = conditions: in vivo, po

Row | Structure (SMILES) | solubility in water | hygroscopicity [1] | chemical stability [2] | thermal stability [2] | LD50 value (rat) [mg/kg]
1 | Cc1nc(Nc2ncc(C(=O)Nc3c(C)cccc3Cl)s2)cc(N2CCN(CCO)CC2)n1 [Dasatinib, N-(2-chloro-6-methylphenyl)-2-[[6-[4-(2-hydroxyethyl)-1-piperazinyl]-2-methyl-4-pyrimidinyl]amino]-5-thiazole carboxamide] | poor | – | – | – | –
2 | Cc1c[nH]c(=O)[nH]c1=O [Thymine] | – | non-hygroscopic | chemically stable | thermally stable | 3500
3 | Nc1ncnc2nc[nH]c12 [Adenine] | – | non-hygroscopic | chemically stable | thermally stable | 227
